Laboratory results taken from patent US8552145B2, “Vaccine for modulating between T1 and T2 immune responses” (priority 2001, dated 2013).
No end group written: not given here.

What was measured:
[1] = system: Blend C (natural human MUC1 mucin purified from ovarian cancer ascites); test: Anti-MUC1 antibody levels (serum ELISA) after immunization, Blend C solid phase; type: in vivo; conditions: Protocol 1346; C57Bl/6 mice immunized two times, subcutaneously; individual mouse
Method: (§1) MUC1 based liposomal vaccines (“BLP25 liposomal vaccines”) at a dose of 100 μg (250 μl) was injected subcutaneously, two, three, or four times, at biweekly intervals, into right and left inguinal regions (125 μl per each site).

[2] = system: BP1-151HSA conjugate (MUC1 24 amino acid peptide conjugated to HSA); test: Anti-MUC1 IgG levels (serum ELISA) in MUC1 transgenic mice, BP1-151 HSA solid phase; type: in vivo, C57Bl/6 MUC1 transgenic mice; conditions: Protocol 1347C, 4 immunizations, individual mouse
Text: To further characterize the observed phenomenon, MUC I transgenic mice were immunized with MUC I based liposomal formulations containing mono- or dilipopeptides.

[3] = system: BP1-151HSA conjugate (MUC1 24 amino acid peptide conjugated to HSA); test: Anti-MUC1 antibody levels (serum ELISA) after immunization, BP1-151-HSA solid phase; type: in vivo, C57BL/6 mice; conditions: for antibody levels / humoral immunity (in words): immunized mice, liposomal formulations containing lipid A adjuvant
Method: as §1

Chain of Blend C (natural human MUC1 mucin purified from ovarian cancer ascites) (P15941 24-1255): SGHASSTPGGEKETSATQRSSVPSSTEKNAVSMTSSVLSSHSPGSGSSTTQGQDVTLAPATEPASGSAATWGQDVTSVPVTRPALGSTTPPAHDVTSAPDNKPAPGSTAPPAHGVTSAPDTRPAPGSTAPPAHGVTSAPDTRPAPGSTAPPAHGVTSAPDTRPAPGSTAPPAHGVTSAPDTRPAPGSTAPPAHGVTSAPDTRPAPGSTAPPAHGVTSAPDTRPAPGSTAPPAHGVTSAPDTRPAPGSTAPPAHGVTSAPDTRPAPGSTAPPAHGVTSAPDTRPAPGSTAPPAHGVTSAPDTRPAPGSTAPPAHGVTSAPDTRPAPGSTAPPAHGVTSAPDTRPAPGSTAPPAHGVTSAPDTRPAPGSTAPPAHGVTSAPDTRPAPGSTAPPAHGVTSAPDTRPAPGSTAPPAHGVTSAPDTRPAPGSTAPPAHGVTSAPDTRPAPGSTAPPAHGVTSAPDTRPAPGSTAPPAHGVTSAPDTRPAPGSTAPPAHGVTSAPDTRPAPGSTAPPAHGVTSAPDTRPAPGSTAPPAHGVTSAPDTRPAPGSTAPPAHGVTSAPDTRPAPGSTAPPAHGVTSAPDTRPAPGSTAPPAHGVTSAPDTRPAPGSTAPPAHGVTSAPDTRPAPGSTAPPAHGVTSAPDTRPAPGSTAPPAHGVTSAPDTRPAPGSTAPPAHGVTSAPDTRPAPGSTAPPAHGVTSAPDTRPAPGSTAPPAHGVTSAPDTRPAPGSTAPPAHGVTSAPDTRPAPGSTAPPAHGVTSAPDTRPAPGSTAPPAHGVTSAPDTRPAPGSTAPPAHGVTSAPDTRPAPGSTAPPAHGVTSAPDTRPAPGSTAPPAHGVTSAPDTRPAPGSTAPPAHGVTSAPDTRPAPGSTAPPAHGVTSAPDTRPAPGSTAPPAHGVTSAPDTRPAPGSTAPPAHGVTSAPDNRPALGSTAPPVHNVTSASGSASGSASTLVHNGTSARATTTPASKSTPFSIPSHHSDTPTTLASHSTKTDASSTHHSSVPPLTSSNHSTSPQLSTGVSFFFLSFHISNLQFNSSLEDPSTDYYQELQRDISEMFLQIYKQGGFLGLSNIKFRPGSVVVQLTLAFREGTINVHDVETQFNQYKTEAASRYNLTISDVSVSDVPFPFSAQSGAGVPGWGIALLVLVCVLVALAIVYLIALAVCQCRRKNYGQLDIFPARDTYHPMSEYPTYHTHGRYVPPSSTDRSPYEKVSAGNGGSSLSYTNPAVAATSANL

Substance	Antibody Titer, IgG, Blend C [1]	Antibody Titer, IgG, BP1-151 HSA [2]	Antibody Titer, IgG, BP1-151-HSA ([3]; Protocol 1346, C57Bl/6 mice immunized two times, subcutaneously, individual mouse)	antibody levels / humoral immunity (in words) [3]
GVTSAPDTRPAPGSTAS(myristyl)L [BP1-228]	no antibodies were detected	very low titers of IgG	only low titers	very low or no antibody levels
GVTSAPDTRPAPGSTAS(myristyl)S(myristyl)L [BP1-217]		strong IgG antibody response		
TAPPAHGVTSAPDTRPAPGSTAPPK(palmitate)K(palmitate)G [BP1-132A]				induce humoral immunity
